Measured values: US20240399175A1, “REVERSAL OF SENESCENCE BY ULTRASOUND IRRADIATION” (Board of Regents, The University of Texas System, priority 2021, published 2024)

Test system: Vero cells
Test: Senescence induction in Vero cells by chemical stressors (growth, cell size)
Format: cell-based, African monkey
Settings: for cell growth of stressor-treated cells: 200 μM H2O2, 4 μM sodium butyrate, 25 μM Bleomycin Sulphate for 36-48 hours, growth over 48 h
Procedure: To test the generality of any senescent treatment, the inventors used four different methods to cause Vero cell senescence, replicative, hydrogen peroxide, sodium butyrate and Bleomycin sulfate. Senescence was measured as a decreased growth rate, increased O-gal activity, increased cell size, and secretion of pro-inflammatory factors called SASP. All four criteria were met with each type of senescent cells (FIGS. 1A to 1G). […] (FIG. 1B). There were significant differences in the size of the senescent cells with bleomycin sulfate-treated cells being the largest and replicative senescent cells the smallest (FIGS. 1C and 1D). To assay for SASP activity, the inventors cultured the senescent cells overnight and collected the supernatant from each dish. Supernatants were diluted 1:1 with fresh media and added to normal control cells. The change in normal cell number was measured after a 48 hour incubation. […] When β-galactosidase levels were measured by antibody staining, there was a relatively uniform increase in levels (FIGS. 1F and 1G). Thus, by all four criteria, the four different types of senescent cells were indeed senescent.
Senescence induction and quantification. Vero cells were treated with various stressors including 200 μM H2O2, 4 μM of sodium butyrate (SB), and 25 μM of Bleomycin Sulphate (BS) and incubated for 36-48 hours. After washing with PBS and then replacing growth medium with fresh medium, cells were incubated for 4 days to confirm the growth arrest of senescent cells. […] The inventors used four criteria to determine if cells were senescent; (1) Cell cycle arrest by determining the growth rate, (2) Increase in cell spread area, (3) Development of senescence associated secretory phonotype (SASP) in culture medium, and (4) beta-gal staining. The inventors captured images of cells with an Evos microscope at 10× magnification after treatment and 48 hours post treatment. To measure growth by the increase in cell number, 15 random images were captured, then the average number of cells were determined, which was divided by the area of one frame to get the cell density (cells/cm^2). Then this seeding density was multiplied by the total area of the dish or well to obtain the total number of cells after US treatment and after 48 hours if incubation. The total number of cells at 48 hours was divided by the total number of cells just after the treatment to determine the growth rate. If the ratio was one, there was no growth.
Senescence was detected by the beta-gal senescence staining kit as per manufacturer's protocol. […] The percentages of beta-gal positive cells were determined by counting the number of blue cells and dividing by the total number of cells. Cell spread area was determined by capturing the mages of cells with a 10× objective using an Evos microscope. […]

Compound	cell growth of stressor-treated cells	size of the senescent cells (comparison among types of senescent cells)
Bleomycin sulfate	cell growth was effectively blocked	largest
OO [hydrogen peroxide]	cell growth was effectively blocked	–
CCCC(=O)[O-].[Na+] [sodium butyrate]	cell growth was effectively blocked	–
